Several values for one entry are separate records, joined by “and”; a condition that tells them apart may be missing. Equal values may be shown once. Toxic doses and inconclusive results are not listed.

In this assay the test system is CD2F1 mice, L1210 leukemia ip, survival T/C. The experiment in a line: NCI In Vivo Anticancer Drug Screen. Data for tumor model L1210 Leukemia (intraperitoneal) in CD2F1 (CDF1) mice. The settings on record: higher = longer survival. The method, boiled down: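 Vehicle-treated tumor-bearing mice served as controls (C) for compound-treated mice (T). Reported figure is T divided by C.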

The mark [1] stands for this setting: endpoint: mean survival time, dose: 50.0 mg/kg/injection, schedule: Q01DX009 (ip), vehicle: Klucel (hydroxypropylcellulose) (HPC).
Where [2] appears, read: endpoint: mean survival time, dose: 100.0 mg/kg/injection, schedule: Q01DX009 (ip), vehicle: Klucel (hydroxypropylcellulose) (HPC).
The mark [3] stands for this setting: endpoint: mean survival time, dose: 100.0 mg/kg/injection, schedule: Q04DX003 (ip), vehicle: saline with Tween-80.
The mark [4] stands for this setting: endpoint: mean survival time, dose: 200.0 mg/kg/injection, schedule: Q04DX003 (ip), vehicle: saline with Tween-80.
Where [5] appears, read: endpoint: mean survival time, dose: 400.0 mg/kg/injection, schedule: Q04DX003 (ip), vehicle: saline with Tween-80.

Regarding `CCOC(=O)C1C2OC(=O)C(C(=O)C2CN(CCCl)CCCl)C1C1CC=C(CC2=CCC(C3C4C(=O)OC(C(CN(CCCl)CCCl)C4=O)C3C(=O)OCC)CC2)CC1` (configuration not stated), the T/C by setting is: (endpoint: mean survival time, dose: 6.25 mg/kg/injection, schedule: Q01DX009 (ip), vehicle: Klucel (hydroxypropylcellulose) (HPC)) 121 % of control; (endpoint: mean survival time, dose: 12.5 mg/kg/injection, schedule: Q01DX009 (ip), vehicle: Klucel (hydroxypropylcellulose) (HPC)) 121 % of control; under setting [1], 154 % of control and 162 % of control; under setting [2], 154 % of control and 232 % of control; (endpoint: mean survival time, dose: 200.0 mg/kg/injection, schedule: Q01DX009 (ip), vehicle: Klucel (hydroxypropylcellulose) (HPC)) 111 % of control; (endpoint: mean survival time, dose: 400.0 mg/kg/injection, schedule: Q01DX009 (ip), vehicle: Klucel (hydroxypropylcellulose) (HPC)) 88 % of control.
Consider `COc1ccc(NC(=O)Oc2cccnc2)c(Cl)c1`, for which the T/C runs as follows: under setting [1], 100 % of control; under setting [2], 104 % of control.
For the compound `CCC(C)[N+](=O)[O-]` (configuration not stated), the T/C was 94 % of control (endpoint: mean survival time, dose: 50.0 mg/kg/injection, schedule: Q01DX001 (ip), vehicle: saline); 98 % of control (endpoint: mean survival time, dose: 100.0 mg/kg/injection, schedule: Q01DX001 (ip), vehicle: saline); 102 % of control (endpoint: mean survival time, dose: 200.0 mg/kg/injection, schedule: Q01DX001 (ip), vehicle: saline).
Consider `Cc1ccc(C(=O)C(=O)c2ccc(C)cc2C)c(C)c1`, for which the T/C was 94 % of control (endpoint: mean survival time, dose: 75.0 mg/kg/injection, schedule: Q01DX001 (ip), vehicle: other); 87 % of control (endpoint: mean survival time, dose: 150.0 mg/kg/injection, schedule: Q01DX001 (ip), vehicle: other); 94 % of control (endpoint: mean survival time, dose: 300.0 mg/kg/injection, schedule: Q01DX001 (ip), vehicle: other).
On to `CC(C)c1ccc(C(=O)C(O)c2ccc(C(C)C)cc2)cc1` (configuration not stated), for which the T/C is, setting by setting: under setting [3], 102 % of control; under setting [4], 102 % of control; under setting [5], 95 % of control.
Turning to `CCC[CH2][Sn]([CH2]CCC)([O]C(=O)COc1ccc(C(=O)c2ccccc2)c(O)c1)[O]C(=O)COc1ccc(C(=O)c2ccccc2)c(O)c1`, the T/C (endpoint: mean survival time, dose: 1.56 mg/kg/injection, schedule: Q01DX001 (ip), vehicle: saline with Tween-80) was 95 % of control; the T/C (endpoint: mean survival time, dose: 3.13 mg/kg/injection, schedule: Q01DX001 (ip), vehicle: saline with Tween-80) is 98 % of control; the T/C (endpoint: mean survival time, dose: 6.25 mg/kg/injection, schedule: Q01DX001 (ip), vehicle: saline with Tween-80) is 98 % of control; the T/C (endpoint: mean survival time, dose: 12.5 mg/kg/injection, schedule: Q01DX001 (ip), vehicle: saline with Tween-80) is 105 % of control.
In the case of `COc1nc(NC2OC(CO)C(O)C(O)C2O)cc(=O)n1C` (configuration not stated), the T/C was 98 % of control (endpoint: median survival time, dose: 12.5 mg/kg/injection, schedule: Q01DX005 (ip), vehicle: saline); 98 % of control (endpoint: median survival time, dose: 25.0 mg/kg/injection, schedule: Q01DX005 (ip), vehicle: saline); 100 % of control (endpoint: median survival time, dose: 50.0 mg/kg/injection, schedule: Q01DX005 (ip), vehicle: saline); 102 % of control (endpoint: median survival time, dose: 100.0 mg/kg/injection, schedule: Q01DX005 (ip), vehicle: saline); 102 % of control (endpoint: median survival time, dose: 200.0 mg/kg/injection, schedule: Q01DX005 (ip), vehicle: saline).
Consider `CCOC(=O)c1c([N+](=O)[O-])cnn1C1OC(COC(C)=O)C(OC(C)=O)C1OC(C)=O` (configuration not stated), for which the T/C by setting is: (endpoint: median survival time, dose: 8.75 mg/kg/injection, schedule: Q01DX005 (ip), vehicle: distilled water + Tween-80) 104 % of control; (endpoint: median survival time, dose: 17.5 mg/kg/injection, schedule: Q01DX005 (ip), vehicle: distilled water + Tween-80) 107 % of control; (endpoint: median survival time, dose: 35.0 mg/kg/injection, schedule: Q01DX005 (ip), vehicle: distilled water + Tween-80) 96 % of control; (endpoint: median survival time, dose: 70.0 mg/kg/injection, schedule: Q01DX005 (ip), vehicle: distilled water + Tween-80) 101 % of control; (endpoint: median survival time, dose: 140.0 mg/kg/injection, schedule: Q01DX005 (ip), vehicle: distilled water + Tween-80) 101 % of control.
Regarding `NC(=S)/N=C\C(CC(O)C(O)C(O)CO)=N\NC(N)=S` (configuration not stated), the T/C runs as follows: (endpoint: mean survival time, dose: 6.25 mg/kg/injection, schedule: Q01DX009 (ip), vehicle: saline with Tween-80) 96 % of control; (endpoint: mean survival time, dose: 12.5 mg/kg/injection, schedule: Q01DX009 (ip), vehicle: saline with Tween-80) 96 % of control; (endpoint: mean survival time, dose: 25.0 mg/kg/injection, schedule: Q01DX009 (ip), vehicle: saline with Tween-80) 95 % of control and 100 % of control; (endpoint: mean survival time, dose: 50.0 mg/kg/injection, schedule: Q01DX009 (ip), vehicle: saline with Tween-80) 93 % of control and 101 % of control; (endpoint: mean survival time, dose: 100.0 mg/kg/injection, schedule: Q01DX009 (ip), vehicle: saline with Tween-80) 101 % of control; (endpoint: mean survival time, dose: 200.0 mg/kg/injection, schedule: Q01DX009 (ip), vehicle: saline with Tween-80) 86 % of control.
For the compound `Cc1cn(C2CC(O)C(CO)O2)c(=O)nc1NCC12CC3CC(CC(C3)C1)C2` (configuration not stated), the T/C by setting is: (endpoint: median survival time, dose: 12.5 mg/kg/injection, schedule: Q01DX005 (ip), vehicle: distilled water + Tween-80) 105 % of control; (endpoint: median survival time, dose: 25.0 mg/kg/injection, schedule: Q01DX005 (ip), vehicle: distilled water + Tween-80) 104 % of control; (endpoint: median survival time, dose: 50.0 mg/kg/injection, schedule: Q01DX005 (ip), vehicle: distilled water + Tween-80) 102 % of control; (endpoint: median survival time, dose: 100.0 mg/kg/injection, schedule: Q01DX005 (ip), vehicle: distilled water + Tween-80) 94 % of control.
On to `N/C(=N\N=C\c1c(F)c(F)c(F)c(F)c1F)N[N+](=O)[O-]`, for which the T/C reads like this: under setting [3], 106 % of control; under setting [4], 98 % of control; under setting [5], 96 % of control.
Consider `O=C([O][Sb]([O]C(=O)C(F)(F)F)([c]1ccccc1)([c]1ccccc1)[c]1ccccc1)C(F)(F)F`, for which the T/C is 93 % of control (endpoint: mean survival time, dose: 50.0 mg/kg/injection, schedule: Q04DX002 (ip), vehicle: saline with Tween-80); 93 % of control (endpoint: mean survival time, dose: 100.0 mg/kg/injection, schedule: Q04DX002 (ip), vehicle: saline with Tween-80); 97 % of control (endpoint: mean survival time, dose: 200.0 mg/kg/injection, schedule: Q04DX002 (ip), vehicle: saline with Tween-80).
Turning to `O=Cc1ccc(OCCCOc2ccc([N+](=O)[O-])cc2)cc1`, the T/C runs as follows: (endpoint: mean survival time, dose: 100.0 mg/kg/injection, schedule: Q04DX002 (ip), vehicle: Klucel (hydroxypropylcellulose) (HPC)) 102 % of control; (endpoint: mean survival time, dose: 200.0 mg/kg/injection, schedule: Q04DX002 (ip), vehicle: Klucel (hydroxypropylcellulose) (HPC)) 94 % of control; (endpoint: mean survival time, dose: 400.0 mg/kg/injection, schedule: Q04DX002 (ip), vehicle: Klucel (hydroxypropylcellulose) (HPC)) 102 % of control.
As to `C=C(C)CNC1=C(C)C(=O)C2=C(C1=O)[C@@H](COC(N)=O)[C@]1(O)[C@H]3[C@@H](CN21)N3C` (some centres not stated), the T/C (endpoint: mean survival time, dose: 1.5 mg/kg/injection, schedule: Q01DX001 (ip), vehicle: water) was 97 % of control; the T/C (endpoint: mean survival time, dose: 3.0 mg/kg/injection, schedule: Q01DX001 (ip), vehicle: water) was 97 % of control; the T/C (endpoint: mean survival time, dose: 6.0 mg/kg/injection, schedule: Q01DX001 (ip), vehicle: water) was 103 % of control; the T/C (endpoint: mean survival time, dose: 12.0 mg/kg/injection, schedule: Q01DX001 (ip), vehicle: water) was 98 % of control; the T/C (endpoint: mean survival time, dose: 24.0 mg/kg/injection, schedule: Q01DX001 (ip), vehicle: water) is 106 % of control; the T/C (endpoint: mean survival time, dose: 100.0 mg/kg/injection, schedule: Q01DX001 (ip), vehicle: distilled water + Tween-80) is 156 % of control.
Turning to `COC(=O)C12OCC34C(CC5C(C)C6=CC(=O)OC6=CC5(C)C3C(O)C1O)OC(=O)C(OC(C)=O)C24` (configuration not stated), the T/C was 98 % of control (endpoint: median survival time, dose: 0.13 mg/kg/injection, schedule: Q01DX009 (ip), vehicle: saline + alcohol); 98 % of control (endpoint: median survival time, dose: 0.25 mg/kg/injection, schedule: Q01DX009 (ip), vehicle: saline + alcohol); 98 % of control (endpoint: median survival time, dose: 0.5 mg/kg/injection, schedule: Q01DX009 (ip), vehicle: saline + alcohol); 100 % of control (endpoint: median survival time, dose: 1.0 mg/kg/injection, schedule: Q01DX009 (ip), vehicle: saline + alcohol); 102 % of control and 103 % of control (endpoint: median survival time, dose: 2.0 mg/kg/injection, schedule: Q01DX009 (ip), vehicle: saline + alcohol); 102 % of control (endpoint: median survival time, dose: 4.0 mg/kg/injection, schedule: Q01DX009 (ip), vehicle: saline + alcohol). Also, the T/C reads like this: (endpoint: median survival time, dose: 8.0 mg/kg/injection, schedule: Q01DX009 (ip), vehicle: saline + alcohol) 94 % of control; (endpoint: median survival time, dose: 16.0 mg/kg/injection, schedule: Q01DX009 (ip), vehicle: saline + alcohol) 96 % of control.
`O=C(Nc1ccc(Cl)c(Cl)c1)OCC#CCOC(=O)Nc1ccc(Cl)c(Cl)c1`: the T/C runs as follows: (endpoint: mean survival time, dose: 100.0 mg/kg/injection, schedule: Q04DX003 (ip), vehicle: saline) 95 % of control; (endpoint: mean survival time, dose: 200.0 mg/kg/injection, schedule: Q04DX003 (ip), vehicle: saline) 95 % of control; (endpoint: mean survival time, dose: 400.0 mg/kg/injection, schedule: Q04DX003 (ip), vehicle: saline) 91 % of control.

The record behind these values is PubChem BioAssay AID256 (DTP/NCI, 2004).
